Key:
Assay type in all cases: cell-based, human
hESC [1] = experiment: Flow cytometry analysis of differentiation markers at day 4 of DE differentiation; details: for differentiation to DE: supplementation of Activin A, compared with Activin A and DMSO
Description: Definitive endoderm formation: hESC were passaged onto the appropriate culture flasks or plates at 0.6×10^5 cells/cm^2 and cultured for 2 days. To initiate definitive endoderm differentiation hESC were washed once with PBS and cultured in RMPI 1640 medium (Life Technologies) supplemented with 100 ng/ml of Activin A (R&D Systems) and 0.25 to 2% of DMSO (Sigma). FBS (0.2%) was added after first 24 hours and cells were cultured for four days with media changed daily.
Cells cultured in 6 well plates were washed twice in PBS and treated with 0.25% trypsin-EDTA (Life Technologies) to obtain single cell suspensions. Trypsin was inactivated after 5 min of incubation by adding medium containing 10% FBS. Cells were counted, centrifuged at 300 g for 5 min, washed twice with PBS and subsequently fixed in 2% paraformaldehyde (USB). Following 15 min incubation at room temperature cells were washed in PBS and perm/wash buffer (PWB) (BD) and subsequently resuspended at 4×10^6 cells/ml in perm/wash buffer supplemented with 0.1 mg/ml human IgG (Sigma) and 10% serum from the species of secondary antibody (Life Technologies). Cells were incubated for 30 min at 4° C. and then 50 μl aliquots (2×10^5 cells) were transferred to individual 5 ml polystyrene round-bottom FACS assay tubes. For double staining of cells with OCT4 and SOX17, cells were stained in perm/wash buffer first with mouse anti-OCT4 (Cell Signalling) and incubated for 1 h at room temperature, following by two washes with PBS and incubation in perm/wash buffer with goat anti-mouse-FITC (Molecular Probes) and goat anti-SOX17-APC (R&D Systems). Following 1 h incubation at 4° C., samples were washed twice and resuspended in 0.2% FBS in PBS in a final volume of […]. Separate staining for OCT4 and SOX17 was performed analogously. Cells were analysed on a BD FACSCalibur flow cytometer and data analysed using CellQuest software.

hESC [2] = experiment: qRT-PCR analysis of differentiation markers at day 4 of DE differentiation
Description: Definitive endoderm formation: hESC were passaged onto the appropriate culture flasks or plates at 0.6×10^5 cells/cm^2 and cultured for 2 days. To initiate definitive endoderm differentiation hESC were washed once with PBS and cultured in RMPI 1640 medium (Life Technologies) supplemented with 100 ng/ml of Activin A (R&D Systems) and 0.25 to 2% of DMSO (Sigma). FBS (0.2%) was added after first 24 hours and cells were cultured for four days with media changed daily. Isolation of total cellular RNA was performed using an illustra RNAspin Mini RNA Isolation Kit (GE Healthcare) and the concentration of RNA in each sample measured on a NanoDrop 1000 spectrophotometer. 1 μg of extracted total RNA was reverse transcribed using High Capacity cDNA Reverse Transcription Kit (Applied Biosystems). TaqMan quantitative PCR was performed using unlabelled PCR primers and FAM-based probes (Applied Biosystems by Life Technologies) in conjunction with TaqMan Universal PCR Master Mix, No AmpErase UNG (Applied Biosystems). Concentrated TaqMan PCR Master Mix (2×) was combined with water and cDNA. The final concentration of Master Mix was achieved by addition of appropriate concentrations of primers/FAM probes diluted in water. Reactions were carried out on a 7900HT Fast Real-Time PCR System (Applied Biosystems). qRT-PCR cycling conditions were: 95° C. for 10 min, and subsequently 45 cycles of 95° C. for 10 sec and 60° C. for 1 min. Each sample was run in triplicate with GAPDH as a reference gene. Analysis of results was performed in SDS Software for the 7900HT Fast Real-Time PCR System. Relative quantification was calculated against GAPDH and B-Actin housekeeping genes and standard derivations report n=3 replicates from each sample.

hESC [3] = experiment: Immunofluorescence analysis of differentiation markers at day 4 of DE differentiation
Description: Definitive endoderm formation: hESC were passaged onto the appropriate culture flasks or plates at 0.6×10^5 cells/cm^2 and cultured for 2 days. To initiate definitive endoderm differentiation hESC were washed once with PBS and cultured in RMPI 1640 medium (Life Technologies) supplemented with 100 ng/ml of Activin A (R&D Systems) and 0.25 to 2% of DMSO (Sigma). FBS (0.2%) was added after first 24 hours and cells were cultured for four days with media changed daily. For detection of stage-specific markers, cells were grown and differentiated in 96 well plates (uClear black plate with clear flat bottom, Greiner). Cells were rinsed twice with PBS and fixed in 4% paraformaldehyde (USB) for 15 min at room temperature and then washed twice with PBS and blocked for 30 min at RT in 1% BSA (Life Technologies) and 0.1 mg/ml human IgG (Sigma) in perm/wash buffer (BD). Cells were subsequently stained for 2 hours at RT or overnight at 4° C. with primary rabbit anti-OCT4 (Cell Signaling), mouse and anti-SOX17 (Abcam) antibodies diluted in perm/wash buffer. Cells were subsequently washed several times with perm/wash buffer and incubated at 4° C. in the dark with goat anti-mouse-FITC and chicken anti-rabbit-Cy5 (Molecular probes) diluted 1:400 in perm/wash buffer. […]

hESC [4] = experiment: Differentiation of hESC-derived DE towards hepatic like cells (AFP day 12, ALB day 28); details: day 28 (hepatic like cells), with increasing concentrations of DMSO during DE stage
Description: Definitive endoderm formation: hESC were passaged onto the appropriate culture flasks or plates at 0.6×10^5 cells/cm^2 and cultured for 2 days. To initiate definitive endoderm differentiation hESC were washed once with PBS and cultured in RMPI 1640 medium (Life Technologies) supplemented with 100 ng/ml of Activin A (R&D Systems) and 0.25 to 2% of DMSO (Sigma). FBS (0.2%) was added after first 24 hours and cells were cultured for four days with media changed daily. Hepatic specification: hESC-derived definitive endoderm cells were washed once with PBS and cultured in KO-DMEM medium and 2% KOSR supplemented with 1 mM L-glutamine, NEAA (all from Life Technologies), B-Mercaptoethanol (Sigma), 30 ng/ml BMP2, 10 ng/ml FGF4, 0.5% DMSO for 5 days with BMP4. […] Isolation of total cellular RNA was performed using an illustra RNAspin Mini RNA Isolation Kit (GE Healthcare) and the concentration of RNA in each sample measured on a NanoDrop 1000 spectrophotometer. […] TaqMan quantitative PCR was performed using unlabelled PCR primers and FAM-based probes (Applied Biosystems by Life Technologies) in conjunction with TaqMan Universal PCR Master Mix, No AmpErase UNG (Applied Biosystems). […] Relative quantification was calculated against GAPDH and B-Actin housekeeping genes and standard derivations report n=3 replicates from each sample.

[5] = 0.5% and 1% DMSO added to Activin A containing medium, day 4, relative to control cells treated with Activin A alone
[6] = increasing concentrations of DMSO with Activin A, day 4

Molecule | OCT4 expressing cells (hESC [1]; [5]) | SOX17 expressing cells (hESC [1]; [5]) | OCT4 expression (hESC [1]; increasing concentrations of DMSO with Activin A, day 4, flow cytometry confirmation) | expression of pluripotency genes (hESC [2]; 0.5% to 0.6% DMSO added to Activin A-based medium during definitive endoderm derivation) | DE differentiation compared with established prior art method (Hay et al) (hESC [2]; DMSO method day 4 (KCGE D4) versus Hay D5) | CXCR4 expression (hESC [2]; [6]) | GATA4 expression (hESC [2]; [6]) | OCT4 expression (hESC [2]; [6]) | SOX17 expression (hESC [2]; [6]) | OCT4 expression (hESC [3]; increasing concentrations of DMSO from 0% to 2% with Activin A) | DMSO concentration at which SOX 17 staining was maximum (hESC [3]; with Activin A) [%] | ALB expression (hESC [4]) | differentiation to DE (hESC [1])
C[S+](C)[O-] [DMSO, dimethyl sulfoxide] | decrease | increase | down regulation | rapid down regulation | significant improvement | up regulation | up regulation | significant dose dependent decrease | up regulation | down regulation | 0.6 | increased | 
FGF2: growth factor reported to aid in DE differentiation, used in conjunction with Activin A |  |  |  |  |  |  |  |  |  |  |  |  | inferior
Wnt3a: growth factor reported to aid in DE differentiation, used in conjunction with Activin A (protein, UniProt P56704 19-352, looked up) Protein Wnt-3a: SYPIWWSLAVGPQYSSLGSQPILCASIPGLVPKQLRFCRNYVEIMPSVAEGIKIGIQECQHQFRGRRWNCTTVHDSLAIFGPVLDKATRESAFVHAIASAGVAFAVTRSCAEGTAAICGCSSRHQGSPGKGWKWGGCSEDIEFGGMVSREFADARENRPDARSAMNRHNNEAGRQAIASHMHLKCKCHGLSGSCEVKTCWWSQPDFRAIGDFLKDKYDSASEMVVEKHRESRGWVETLRPRYTYFKVPTERDLVYYEASPNFCEPNPETGSFGTRDRTCNVSSHGIDGCDLLCCGRGHNARAERRREKCRCVFHWCCYVSCQECTRVYDVHTCK |  |  |  |  |  |  |  |  |  |  |  |  | inferior

— US9404086B2, “Method for cell differentiation” (GE HEALTHCARE UK LIMITED, priority 2014, dated 2016)
